Measurements as given in patent US5736510A, “Antibiotics 10381v, w, x,y, z1, z2, pre-b and t” (priority 1996, dated 1998).
Where two headings read alike, the source gives them in different places.

Tests used:
Type in all cases: cell-based
S. bovis = details: strain JB1; for Minimal Inhibitory Concentration (bioactivity data): Table IV (separate study)
E. ruminantium = details: strain GA195; Table III; mass basis, no correction for purity
B. thetaiotaomicron = details: strain UC9014; for Minimal Inhibitory Concentration (bioactivity data): Table IV (separate study)
Procedure: (§1) The assay measures the ability of a compound to inhibit the growth of certain types of anaerobic bacteria which normally inhabit the gut of poultry, swine or cattle.
(§2) Two mg/ml solutions of the drugs to be tested are made in 10% v/v ethanol/water. This stock is then diluted to one mg per ml and then further diluted through a series of ten-two fold dilutions. At each concentration an aliquot is placed in a sterile petri plate. Nine volumes of molten agar are then added to each plate, mixed and allowed to harden at room temperature. These plates are then transferred to a Coy chamber and allowed to dry and equilibrate with the oxygen free atmosphere.
(§3) Organisms used for MIC testing are inoculated into broth media, and incubated 18-24 h at 39° C. prior to use. The cultures are then diluted to equal the turbidity of a 0.5 MacFarland barium sulfate standard, except for the porcine isolates P108-3C1, P105-1C3 and P105-1C4 which are diluted 1:1. All inoculations and dilutions are performed in the anaerobic chamber using broth media and syringe transfer through the butyl robber stoppers.
(§4) Freshly prepared and diluted cultures are loaded into the wells of a Steers replicator device. This apparatus can dispense ca 10 μl of each of 32 cultures onto the surface of the preincubated agar plates. One hour after the inoculation, the inoculum will have been absorbed and the plates are inverted and incubated at 38°-39° C. for 48 h. Plates are then removed from the chamber and the MIC for the test compounds determined. MIC's are reported as the lowest concentration of a compound which prevented detectable growth of a test organism on the agar plates. […] Thus, each set of test plates yields individual MIC values for each of the 32 test organisms.

F. necrophorum = details: for M.I.C.: Table III, mass basis, no correction for purity; for Minimal Inhibitory Concentration (bioactivity data): Table IV (separate study)
E. lentum = details: strain L-34; Table IV (separate study)
S. faecalis = details: for M.I.C.: Table III, mass basis, no correction for purity; for Minimal Inhibitory Concentration (bioactivity data): Table IV (separate study)
P. ruminicola = details: strain 118B; for Minimal Inhibitory Concentration (bioactivity data): Table IV (separate study)
B. fragilis = details: strain UC9370; for Minimal Inhibitory Concentration (bioactivity data): Table IV (separate study)
C. perfringens = system: C. perfringens; design: Minimal Inhibitory Concentration (bioactivity data): unit not given here; details: for M.I.C.: Table III, mass basis, no correction for purity; for Minimal Inhibitory Concentration (bioactivity data): Table IV (separate study)
S. hyodysenteriae = system: S. hyodysenteriae; design: unit not given here; details: Table IV (separate study)
Procedure: as §1, §2, §3, §4

B. fibrisolvens = details: for M.I.C.: Table III, mass basis, no correction for purity; for Minimal Inhibitory Concentration (bioactivity data): Table IV (separate study)
L. multiparus = details: strain 40; for Minimal Inhibitory Concentration (bioactivity data): Table IV (separate study)
S. ruminantium = details: for M.I.C.: Table III, mass basis, no correction for purity; for Minimal Inhibitory Concentration (bioactivity data): Table IV (separate study)
[1] = system: anaerobic bacteria which normally inhabit the gut of poultry, swine or cattle; assay: in vitro MIC assay, overall comparison of components across the test organisms; details: conclusion from Tables III and IV
Procedure: as §1, §2, §3, §4

M. elsdenii = details: strain B159; for Minimal Inhibitory Concentration (bioactivity data): Table IV (separate study)
R. flavefaciens = details: for M.I.C.: Table III, mass basis, no correction for purity; for Minimal Inhibitory Concentration (bioactivity data): Table IV (separate study)
R. amylophilus = details: strain H18; for Minimal Inhibitory Concentration (bioactivity data): Table IV (separate study)
[2] = Table III, mass basis, no correction for purity

C=C(NC(=O)C(=C)NC(=O)C(=C)NC(=O)c1ccc2c(n1)-c1coc(n1)C(=C)NC(=O)C(=C)NC(=O)c1nc(oc1C)/C(=C/C)NC(=O)c1csc(n1)C(OC)NC(=O)c1nc(oc1C)/C(=C/C(C)O)NC(=O)[C@H]([C@@H](C)O)NC(=O)c1csc-2n1)C(N)=O (stereo partly shown) [Antibiotic 10381b, sulfomycin I, reference compound]
M.I.C. (S. bovis; [2]): 3.1 µg/mL | Minimal Inhibitory Concentration (bioactivity data) (S. bovis): 0.8 | M.I.C. (E. ruminantium): 0.4 µg/mL | M.I.C. (B. thetaiotaomicron; [2]): 12.5 µg/mL | Minimal Inhibitory Concentration (bioactivity data) (B. thetaiotaomicron): 25.0 | M.I.C. (F. necrophorum; strain FN4070): 50.0 µg/mL | Minimal Inhibitory Concentration (bioactivity data) (F. necrophorum; strain FN4070): 100 | M.I.C. (F. necrophorum; strain FN5052): 100.0 µg/mL | Minimal Inhibitory Concentration (bioactivity data) (F. necrophorum; strain FN5052): 100 | Minimal Inhibitory Concentration (bioactivity data) (E. lentum): < 0.2 | M.I.C. (S. faecalis; strain 71A01): 25.0 µg/mL | Minimal Inhibitory Concentration (bioactivity data) (S. faecalis; strain 71A01): 12.5 | M.I.C. (S. faecalis; strain CCS1-03): 12.5 µg/mL | Minimal Inhibitory Concentration (bioactivity data) (S. faecalis; strain CCS1-03): 6.3 | M.I.C. (S. faecalis; strain P1051C4): 12.5 µg/mL | Minimal Inhibitory Concentration (bioactivity data) (S. faecalis; strain P1051C4): 3.1 | M.I.C. (P. ruminicola; [2]): < 0.2 µg/mL | Minimal Inhibitory Concentration (bioactivity data) (P. ruminicola): < 0.2 | M.I.C. (B. fragilis; [2]): 25.0 µg/mL | Minimal Inhibitory Concentration (bioactivity data) (B. fragilis): 50.0 | M.I.C. (C. perfringens; strain 71A02): 1.6 µg/mL | Minimal Inhibitory Concentration (bioactivity data) (C. perfringens; strain 71A02): < 0.2 | M.I.C. (C. perfringens; strain A82-1): 3.1 µg/mL | Minimal Inhibitory Concentration (bioactivity data) (C. perfringens; strain A82-1): 12.5 | M.I.C. (C. perfringens; strain A83-3): 3.1 µg/mL | Minimal Inhibitory Concentration (bioactivity data) (C. perfringens; strain A83-3): < 0.2 | M.I.C. (C. perfringens; strain A83-RKP): 0.8 µg/mL | Minimal Inhibitory Concentration (bioactivity data) (C. perfringens; strain A83-RKP): 0.8 | M.I.C. (C. perfringens; strain CCS1-11): 6.3 µg/mL | Minimal Inhibitory Concentration (bioactivity data) (C. perfringens; strain CCS1-11): < 0.2 | M.I.C. (C. perfringens; strain CCS2-09): 0.8 µg/mL | Minimal Inhibitory Concentration (bioactivity data) (C. perfringens; strain CCS2-09): 0.8 | M.I.C. (C. perfringens; strain P1051C3): 50.0 µg/mL | Minimal Inhibitory Concentration (bioactivity data) (C. perfringens; strain P1051C3): 12.5 | M.I.C. (C. perfringens; strain P1083C1): 0.4 µg/mL | Minimal Inhibitory Concentration (bioactivity data) (C. perfringens; strain P1083C1): 1.6 | M.I.C. (C. perfringens; strain RF1B04): 0.4 µg/mL | Minimal Inhibitory Concentration (bioactivity data) (C. perfringens; strain RF1B04): < 0.2 | M.I.C. (C. perfringens; strain UC9452): 3.1 µg/mL | Minimal Inhibitory Concentration (bioactivity data) (C. perfringens; strain UC9452): 1.6 | Minimal Inhibitory Concentration (bioactivity data) (S. hyodysenteriae; strain 16-4): > 100 | Minimal Inhibitory Concentration (bioactivity data) (S. hyodysenteriae; strain B204): > 100 | M.I.C. (B. fibrisolvens; strain 49): 6.3 µg/mL | Minimal Inhibitory Concentration (bioactivity data) (B. fibrisolvens; strain 49): 1.6 | M.I.C. (B. fibrisolvens; strain D1): 0.8 µg/mL | Minimal Inhibitory Concentration (bioactivity data) (B. fibrisolvens; strain D1): 0.8 | M.I.C. (L. multiparus; [2]): 1.6 µg/mL | Minimal Inhibitory Concentration (bioactivity data) (L. multiparus): 1.6 | M.I.C. (S. ruminantium; strain GA31): 100.0 µg/mL | Minimal Inhibitory Concentration (bioactivity data) (S. ruminantium; strain GA31): 0.8 | M.I.C. (S. ruminantium; strain GA192): > 100.0 µg/mL | Minimal Inhibitory Concentration (bioactivity data) (S. ruminantium; strain GA192): 1.6 | in vitro activity ranking of the individual components [1]: second most active | M.I.C. (M. elsdenii; [2]): > 100.0 µg/mL | Minimal Inhibitory Concentration (bioactivity data) (M. elsdenii): > 100 | M.I.C. (R. flavefaciens; strain C94): 0.8 µg/mL | Minimal Inhibitory Concentration (bioactivity data) (R. flavefaciens; strain C94): 0.8 | M.I.C. (R. flavefaciens; strain FD1): 1.6 µg/mL | Minimal Inhibitory Concentration (bioactivity data) (R. flavefaciens; strain FD1): 1.6 | M.I.C. (R. amylophilus; [2]): > 100.0 µg/mL | Minimal Inhibitory Concentration (bioactivity data) (R. amylophilus): 1.6

C=C(NC(=O)C(=C)NC(=O)C(=C)NC(=O)c1ccc2c(n1)-c1coc(n1)C(=C)NC(=O)C(=C)NC(=O)c1nc(oc1C)C(=CC)NC(=O)c1csc(n1)CNC(=O)c1nc(oc1C)C(=CC(C)O)NC(=O)C(C(C)O)NC(=O)c1csc-2n1)C(N)=O (stereo not shown) [Antibiotic 10381pre-b]
Minimal Inhibitory Concentration (bioactivity data) (S. bovis): 50.0 | Minimal Inhibitory Concentration (bioactivity data) (B. thetaiotaomicron): > 100 | Minimal Inhibitory Concentration (bioactivity data) (F. necrophorum; strain FN4070): > 100 | Minimal Inhibitory Concentration (bioactivity data) (F. necrophorum; strain FN5052): > 100 | Minimal Inhibitory Concentration (bioactivity data) (E. lentum): < 0.2 | Minimal Inhibitory Concentration (bioactivity data) (S. faecalis; strain 71A01): > 100 | Minimal Inhibitory Concentration (bioactivity data) (S. faecalis; strain CCS1-03): > 100 | Minimal Inhibitory Concentration (bioactivity data) (S. faecalis; strain P1051C4): > 100 | Minimal Inhibitory Concentration (bioactivity data) (P. ruminicola): < 0.2 | Minimal Inhibitory Concentration (bioactivity data) (B. fragilis): > 100 | Minimal Inhibitory Concentration (bioactivity data) (C. perfringens; strain A82-1): > 100 | Minimal Inhibitory Concentration (bioactivity data) (C. perfringens; strain A83-3): 1.6 | Minimal Inhibitory Concentration (bioactivity data) (C. perfringens; strain A83-RKP): 1.6 | Minimal Inhibitory Concentration (bioactivity data) (C. perfringens; strain CCS2-09): 50.0 | Minimal Inhibitory Concentration (bioactivity data) (C. perfringens; strain P1051C3): > 100 | Minimal Inhibitory Concentration (bioactivity data) (C. perfringens; strain P1083C1): 25.0 | Minimal Inhibitory Concentration (bioactivity data) (C. perfringens; strain RF1B04): 1.6 | Minimal Inhibitory Concentration (bioactivity data) (C. perfringens; strain UC9452): 25.0 | Minimal Inhibitory Concentration (bioactivity data) (S. hyodysenteriae; strain 16-4): > 100 | Minimal Inhibitory Concentration (bioactivity data) (S. hyodysenteriae; strain B204): > 100 | Minimal Inhibitory Concentration (bioactivity data) (B. fibrisolvens; strain 49): 50.0 | Minimal Inhibitory Concentration (bioactivity data) (B. fibrisolvens; strain D1): 12.5 | Minimal Inhibitory Concentration (bioactivity data) (L. multiparus): > 100 | Minimal Inhibitory Concentration (bioactivity data) (S. ruminantium; strain GA31): 50.0 | Minimal Inhibitory Concentration (bioactivity data) (S. ruminantium; strain GA192): 6.3 | in vitro activity ranking of the individual components [1]: considerably less active | Minimal Inhibitory Concentration (bioactivity data) (M. elsdenii): > 100 | Minimal Inhibitory Concentration (bioactivity data) (R. flavefaciens; strain C94): 25.0 | Minimal Inhibitory Concentration (bioactivity data) (R. flavefaciens; strain FD1): 25.0 | Minimal Inhibitory Concentration (bioactivity data) (R. amylophilus): > 100
